Here are results for two molecules from patent US8252308B2, “Feminine anti-itch gel” (C.B. Fleet Company Inc., priority 2005, dated 2012).

This data set in a line: pH and solubility behaviour of the anesthetic in water. In kind it is physicochemical. The source says: In a preferred aspect, the pH modifier and the quantity of the pH modifier are selected to provide a pH to the composition of from 4 to 7, from 4.5 to 6.5, or more preferably from 5 to 5.3 when pramoxine serves as an anesthetic. In one aspect, the preferred pH for the gel is a pH value where the anesthetic is substantially present in its neutral state. For example, the hydrochloride salt of pramoxine has an acidic pH in water of about 4. However, at about pH 5 the pramoxine salt deprotonates to a neutral form that may provide increased transfer of the anesthetic into the vulvar tissues. Thus, a sufficient quantity of a base may be added to the gel as a pH modifier to provide the anesthetic in a substantially neutral form. However, at an upper pH value, such as about 5.2 for pramoxine, the anesthetic may precipitate out of the water phase, thus reducing the clarity of the gel. Thus, in a more preferred aspect, the pH modifier is chosen to provide a pH to the gel at which the majority of the anesthetic is present in its neutral state while remaining substantially solubilized.

Structures can show the parent of a compound that is named as a salt.

For the molecule `CCCCOc1ccc(OCCCN2CCOCC2)cc1` [hydrochloride salt of pramoxine, pramoxine hydrochloride], the “pH at which the salt deprotonates to a neutral form” value is reported as approximately 5 and the “upper pH value at which the anesthetic may precipitate out of the water phase” value was “about 5.2”. In addition, the pH in water entry (hydrochloride salt in water) is reported as “about 4”.

Consider `CCOC(=O)c1ccc(N)cc1` [benzocaine], for which the water solubility result is “water insoluble”.
